Patent US7560558B2, “Compound having TGFβ inhibitory activity and medicinal composition containing the same” (Kirin Beer Kabushiki Kaisha, priority 2002, dated 2009)
Structures can show the parent of a compound that is named as a salt.

System: TGFβ signal
Test: TGFβ signal inhibitory activity, (SBE)4-Luc luciferase reporter in A549 cells
Assay type: cell-based, human
Conditions: TGFβ-1 2 ng/ml, A549 (SBE)4-Luc; for inhibition at 3 µM / inhibition at 10 µM: Homo sapiens, A549, 4 h; for TGFβ inhibition, %: 4 hr
Procedure: The TGFβ signal inhibitory activity of compounds according to the present invention was evaluated according to the method described in J. Boil. Chem., 273, 21145-21152 (1998). Specifically, a luciferase gene driving by four tandem binding sequences of Smad2/3, which are TGFβ signal transfer factors was used as a reporter gene ((SBE)4-Luc). This reporter gene was introduced into human lung cancer epithelial cells (A549) (available from ATCC) to establish a stable cell line expressing its gene. A test compound and TGFβ-1 (2 ng/ml) were added to the cells, and the mixture was cultured for 4 hr. Compounds according to the present invention synthesized in the above working examples were used as the test compound. After the culture, the luciferase activity of cells was measured by a chemiluminescence method (Steady Glo (trademark) luciferase assay system available from Promega). Likewise, the luciferase activity was measured for control cells, that is, cells which had been cultured with the addition of TGFβ only, and cells which had been cultured without the addition of TGFβ and the test compound. The TGFβ inhibition rate (%) was calculated based on the results of measurement according to the following equation: TGFβ inhibition rate (%)=(A−B)/(A−C)×100 wherein A, B and C have the following respective meanings: A: luciferase activity in the case where TGFβ1 was added and the test compound was not added (relative luciferase unit); B: luciferase activity in the case where both TGFβ1 and the test compound were added (relative luciferase unit); and C: luciferase activity in the case where neither TGFβ1 nor the test compound was added (relative luciferase unit). The test was carried out for each of a test compound concentration of 3 μM and a test compound concentration of 10 μM. For given test compounds, the test was further carried out for a test compound concentration of 1 μM.

Compound	inhibition at 3 µM (test compound 3 μM) [%]	inhibition at 10 µM (test compound 10 μM) [%]	TGFβ inhibition, % (test compound 3 μM) [%]	TGFβ inhibition, % (test compound 10 μM) [%]
COc1cc2nccc(Oc3ccc(C)cc3C(=O)c3ccccc3)c2cc1OC [Compound 71, {2-[(6,7-Dimethoxy-4-quinolyl)oxy]-5-methylphenyl}-(phenyl)methanone]	79	100		
COc1cc2c(Oc3cc(C)c(C)cc3C(C)=O)ccnc2cc1OCCCN1CCOCC1 [Compound 319, 1-{2-[6-Methoxy-7-(3-morpholin-4-yl-propoxy)-quinolin-4-yloxy]-4,5-dimethyl-phenyl}-ethanone]		100		
COc1cc2c(Oc3cc4ccccc4nc3C)ccnc2cc1OCCN1CCOCC1.Cl.Cl.Cl [Compound 366, 6-Methoxy-4-(2-methyl-quinolin-3-yloxy)-7-(2-morpholin-4-yl-ethoxy)-quinoline hydrochloride]			100	100
COc1cc2nccc(Oc3ccc(Cl)cc3C(=O)c3ccccc3)c2cc1OC.Cl [Compound 69, {5-Chloro-2-[(6,7-dimethoxy-4-quinolyl)oxy]phenyl}-(phenyl)methanone hydrochloride]			100	100
COc1cc2nccc(Oc3cc(C)c(C)cc3/C(C)=N/O)c2cc1OC [Compound 195, 1-[2-(6,7-Dimethoxy-quinolin-4-yloxy)-4,5-dimethyl-phenyl]-ethanone oxime]		100		
COc1cc2nccc(Oc3cc(C)c(C)cc3C(=O)c3ccccc3)c2cc1OC [Compound 76, {2-[(6,7-Dimethoxy-4-quinolyl)oxy]-4,5-dimethylphenyl}-(phenyl)methanone hydrochloride]	95	100		
COc1ccc(Oc2ccnc3cc(OC)c(OC)cc23)c(C(C)=O)c1.Cl [Compound 177, 1-[2-(6,7-Dimethoxy-quinolin-4-yloxy)-5-methoxy-phenyl]-ethanone hydrochloride]			94	100
C=CCO/N=C(\C)c1cc(C)c(C)cc1Oc1ccnc2cc(OC)c(OC)cc12 [Compound 197, 1-[2-(6,7-Dimethoxy-quinolin-4-yloxy)-4,5-dimethyl-phenyl]-ethanone o-allyl-oxime]	40			
COc1cc2nccc(Oc3ccccc3C(=O)c3ccccc3)c2cc1OC [Compound 62, {2-[(6,7-Dimethoxy-4-quinolyl)oxy]-phenyl}(phenyl)-methanone]	43	85		
COc1ccc(Oc2ccnc3cc(OC)c(OC)cc23)c(C(C)=O)c1 [Compound 36, 1-{2-[(6,7-Dimethoxy-4-quinolyl)oxy]-5-methoxyphenyl}-1-ethanone]	95	100		
COc1cc2nccc(Oc3ccc(Cl)cc3C(=O)c3ccccc3)c2cc1OC [Compound 68, {5-Chloro-2-[(6,7-dimethoxy-4-quinolyl)oxy]phenyl}-(phenyl)methanone]	89	100		
COc1cc2c(Oc3cc(C)c(C)cc3C(C)=O)ccnc2cc1OCCCN1CCOCC1.Cl.Cl [Compound 320, 1-{2-[6-Methoxy-7-(3-morpholin-4-yl-propoxy)-quinolin-4-yloxy]-4,5-dimethyl-phenyl}-ethanone hydrochloride]			100	100
COc1cc2c(Oc3cc4ccccc4nc3C)ccnc2cc1OCCN1CCOCC1 [Compound 365, 6-Methoxy-4-(2-methyl-quinolin-3-yloxy)-7-(2-morpholin-4-yl-ethoxy)-quinoline]	100	100		
COc1cc2nccc(Oc3ccc(C)cc3C(=O)c3ccccc3)c2cc1OC.Cl [Compound 72, {2-[(6,7-Dimethoxy-4-quinolyl)oxy]-5-methylphenyl}-(phenyl)methanone hydrochloride]			98	100
COc1cc2nccc(Oc3ccccc3C(=O)c3ccccc3)c2cc1OC.Cl [Compound 63, {2-[(6,7-Dimethoxy-4-quinolyl)oxy]-phenyl}(phenyl)-methanone hydrochloride]			57	91
COc1cc2nccc(Oc3ccc(F)nc3I)c2cc1OC [Compound 211, 4-(6-Fluoro-2-iodo-pyridin-3-yloxy)-6,7-dimethoxy-quinoline]	87	100		
